Test: xn = mol fraction of the nth substance listed
Settings: 101.33 kPa, Liquid; for speed of sound: Sing-around technique in a fixed-path interferometer

CCCC(C)O (centres undefined) [pentan-2-ol] + CCCCCCCCCCCC
Settings	mass density, 293.15 K [kg/m3]	mass density, 298.15 K [kg/m3]	mass density, 303.15 K [kg/m3]	speed of sound, 293.15 K [m/s]	speed of sound, 298.15 K [m/s]	speed of sound, 303.15 K [m/s]	viscosity, 293.15 K [mPa·s]	viscosity, 298.15 K [mPa·s]	viscosity, 303.15 K [mPa·s]
x1 = 0.049	749.65	745.96	742.26	1294	1275	1256	1.443	1.316	1.206
x1 = 0.0965	750.77	747.03	743.3	1291	1271	1252	1.441	1.312	1.201
x1 = 0.2065	753.81	750.05	746.25	1284	1265	1245	1.438	1.307	1.194
x1 = 0.2993	756.86	753.06	749.23	1278	1259	1240	1.465	1.33	1.211
x1 = 0.3986	760.67	756.84	752.97	1271	1252	1233	1.499	1.355	1.231
x1 = 0.5046	765.6	761.71	757.79	1265	1246	1227	1.563	1.406	1.27
x1 = 0.5974	770.7	766.77	762.79	1260	1241	1222	1.667	1.487	1.338
x1 = 0.7026	777.76	773.76	769.72	1255	1236	1217	1.865	1.635	1.447
x1 = 0.8001	785.82	781.77	777.66	1253	1233	1214	2.205	1.9	1.652
x1 = 0.8994	795.9	791.84	787.71	1251	1232	1213	2.786	2.347	1.998
x1 = 0.9497	802.07	798.02	793.89	1251	1232	1213	3.267	2.717	2.284
x1 = 1	809.04	805	800.9	1250	1232	1214	4.001	3.273	2.708

CCCC(C)O (centres undefined) [pentan-2-ol] + CCCCCCCC
Settings	mass density, 293.15 K [kg/m3]	mass density, 298.15 K [kg/m3]	mass density, 303.15 K [kg/m3]	speed of sound, 293.15 K [m/s]	speed of sound, 298.15 K [m/s]	speed of sound, 303.15 K [m/s]	viscosity, 293.15 K [mPa·s]	viscosity, 298.15 K [mPa·s]	viscosity, 303.15 K [mPa·s]
x1 = 0.0509	705.58	701.48	697.35	1190	1170	1149	0.548	0.517	0.486
x1 = 0.105	709.15	705.03	700.87	1189	1169	1148	0.566	0.53	0.498
x1 = 0.1853	714.98	710.84	706.65	1188	1168	1147	0.598	0.56	0.525
x1 = 0.2976	723.78	719.63	715.43	1188	1168	1147	0.658	0.613	0.572
x1 = 0.3968	732.4	728.24	724.03	1189	1169	1149	0.732	0.678	0.629
x1 = 0.4953	741.91	737.73	733.5	1192	1172	1153	0.841	0.77	0.709
x1 = 0.5965	752.73	748.53	744.29	1198	1178	1158	1.008	0.915	0.826
x1 = 0.6993	764.97	760.76	756.5	1207	1187	1167	1.296	1.147	1.022
x1 = 0.7971	777.92	773.74	769.48	1218	1199	1179	1.727	1.495	1.307
x1 = 0.8997	792.82	788.69	784.49	1233	1214	1195	2.531	2.133	1.821
x1 = 0.9509	800.83	796.75	792.59	1242	1223	1204	3.19	2.635	2.215
x1 = 1	809.04	805.01	800.9	1250	1232	1214	4.001	3.273	2.708

CCCC(C)O (centres undefined) [pentan-2-ol] + CCCCCCCCCC
Settings	mass density, 293.15 K [kg/m3]	mass density, 298.15 K [kg/m3]	mass density, 303.15 K [kg/m3]	speed of sound, 293.15 K [m/s]	speed of sound, 298.15 K [m/s]	speed of sound, 303.15 K [m/s]	viscosity, 293.15 K [mPa·s]	viscosity, 298.15 K [mPa·s]	viscosity, 303.15 K [mPa·s]
x1 = 0.0487	731.62	727.76	723.89	1251	1231	1211	0.914	0.845	0.779
x1 = 0.0987	733.41	729.53	725.62	1248	1228	1209	0.912	0.844	0.782
x1 = 0.2043	738.14	734.23	730.28	1243	1223	1204	0.956	0.882	0.81
x1 = 0.2996	742.88	738.94	734.96	1239	1220	1200	0.989	0.909	0.842
x1 = 0.4006	748.67	744.7	740.69	1236	1216	1197	1.084	0.99	0.883
x1 = 0.5017	755.31	751.3	747.25	1233	1214	1194	1.149	1.044	0.952
x1 = 0.6002	762.88	758.83	754.73	1232	1213	1193	1.3	1.166	1.053
x1 = 0.6985	771.67	767.58	763.44	1233	1214	1194	1.531	1.352	1.201
x1 = 0.7992	782.4	778.29	774.12	1237	1217	1198	1.914	1.646	1.439
x1 = 0.8996	794.55	790.46	786.3	1242	1223	1204	2.626	2.214	1.888
x1 = 0.95	801.5	797.43	793.28	1246	1228	1209	3.205	2.651	2.244
x1 = 1	809.04	805.01	800.9	1250	1232	1214	4.001	3.273	2.708

From the NIST ThermoML archive (doi:10.1021/je034208m)
